Results on 9 molecules are retold here after patent US11246846B2, “Trisodium citrate compositions having enhanced uptake across digestive mucosa” (priority 2017, dated 2022).

Data set [1] has as its system Caco2 monolayer. As to conditions: for glutathione diffusion across Caco2: human, 10 mM. Here is the method: Again, undyed isotonic DPBS as receiver and donor buffer rather than HBSS was used due to interference with HBSS components in the HPLC. […] Samples were taken at 15 minute intervals for 90 minutes and replaced with fresh isotonic DPBS. Samples were taken from donor chamber at time 0 and at 90 minutes.

The subject of another data set is Caco-2 monolayer. Description: Leucine permeation across Caco-2 model intestinal barrier (Example I). Format: in vitro ADME, human. The source says: Initially, in order to make a meaningful evaluation of sodium transport of branched-chain amino acids across eukaryotic mucosal cells of the human digestive tract, the inventors elected to test leucine transport using the Caco-2 monolayer model similar to that described by Dash, et al. in “Evaluation of Creatine Transport Using Caco-2 Monolayers” id. The tests were undertaken using a Caco-2 cells so as to more closely approximate transport of creatine and branched-chain amino acids across mucosal cell membranes in vivo than might be reflected in other utilizing non-human cell sources or non-mucosa cell sources. In the permeation tests illustrated herein, simulated gastric and intestinal buffers were made with 0.2 normal (N) NaOH, made by mixing 1 g NaOH as needed with 125 mL deionized water. To simulate intestinal fluid without enzymes, 6.8 g monobasic potassium phosphate were mixed in 77 mL 0.2 N sodium hydroxide, and pH adjusted to 6.8±0.1 using NaOH or HCl, as needed. Thereafter, the solution was diluted to 1 L with deionized water, with a final pH of about 6.8±0.1. To simulate gastric fluid without enzymes, 2.0 g sodium chloride was added to 7.0 mL concentrated HCl, and then diluted to 1 L with deionized water. The pH was approximately 1.2
A repetition in a series of three repetitions was then undertaken to examined the changes in permeation in the presence of a different form of sodium as compared to leucine alone in Hank's Balanced salt solution across a Caco-2 model intestinal barrier (TEER≥1000 ohm*cm2). […] Leucine permeation across the Caco-2 monolayer was measured at 15, 30, 45, 60, 75 and 90 minutes after test initiation in milligrams of leucine per centimeter2 (mg/cm2). Data is summarized in Table I below and illustrated in FIG. 1.

Data set [2] concerns Caco2 monolayer. Format: in vitro ADME, human. As to conditions: for arginine diffusion across Caco2: human, 10 mM. The source says: In further experiments were undertaken using a Caco-2 cellular model similar to that described in connection with Example II above. […] For these experiments undyed isotonic DPBS was used as receiver and donor buffer rather than HBSS due to interference with HBSS components in the HPLC. […] The results of these studies in graphical form are illustrated in FIGS. 6 and 7.

Data set [3] relates to Caco2 monolayer. Description: L-Citrulline and L-Leucine permeability through Caco2 monolayer with/without TSC (Example V). Format: in vitro ADME, human. The following applies: for citrulline diffusion across Caco2: 10 mM each in DPBS. Here is the method:
Again, undyed isotonic DPBS was used as receiver and donor buffer rather than HBSS due to interference with HBSS components in the HPLC. […] Samples were taken at 15 minute intervals for 90 minutes and replaced with fresh isotonic DPBS. Samples were taken from donor chamber at time 0 and at 90 minutes.

For data set [4], the system named is Caco2 monolayer. Description: Sarcosine and L-Leucine permeability through Caco2 monolayer with/without TSC (Example VI). Type of data set: in vitro ADME, human. The following applies: for sarcosine diffusion across Caco2: 10 mM each in DPBS, estimation by subtraction. The text has this:
On analysis it was discovered that a peak in the receiver side samples which had not interfered with previous samples eluted at the same time as the Sarcosine. The results were adjusted by averaging this peak from time points in previous studies and accordingly, the results represent an estimation by subtraction.

Data set [5] relates to Caco2 monolayer. Description: Creatine and leucine diffusion across Caco-2 monolayer, sodium/citrate sources (Example II). Format: in vitro ADME, human. As to conditions: added at 10 mM to creatine monohydrate and leucine.
Protocol: More particularly, after 21 days of growth in Corning® Transwell 6 well plat, trans-epithelial electrical resistance (TEER) was measured across the Caco2 monolayer using an EVOM II TEER meter with an Endohm 24SNAP measuring chambers. Cells were considered ready for use if the average TEER value reached approximately 900 Ohm*cm2. The Caco2 monolayer was then equilibrated in DPBS at 37° C. for 15 minutes. The apical solution was then removed and replaced with the various solutions to be tested. Basolateral chambers were sampled at 15, 30, 45, 60, 75 and 90 minutes and replaced with fresh DPBS. All samples were filtered at 0.45 μm and examined by HPLC. The HPLC analysis utilized a 250 mm×4.6 mm, 5 μm Thermo Scientific BDS Hypersil base deactivated C18 column. The mobile phase consisted of 0.5 M ammonium sulphate at a flow rate of 1.5 m/min. Sample detection was performed at 206 nm using a photodiode array. For this Example II, four formulations were studied, with chemicals present at 10 mM:
For the experiments in this study samples from each formulation were monitored apical to basolateral through a Caco-2 membrane registering an average TEER of 1650 Ohm*cm^2.
The subject of the next data set is Caco 2 Monolayer. Briefly: L-Arginine and L-Citrulline diffusion across Caco2 monolayer with/without TSC (Example III). Type of data set: in vitro ADME, human. The following applies: for arginine diffusion across Caco2: human, 10 mM; for citrulline diffusion across Caco2: 10 mM in DPBS. The procedure: Thereafter, further diffusion studies were undertaken using a Caco-2 cellular model similar to that described in connection with Example II above. Four formulations were studied, with chemicals present at 10 mM: […]
For these experiments undyed isotonic DPBS was used as the receiver and donor buffer rather than HBSS due to interference with HBSS components in the HPLC. […] Below are the results of these studies.

Data set [6] concerns Caco2 monolayer. Briefly: Valine permeability across Caco2 monolayer with/without TSC (Example X). Format: in vitro ADME, human. As to conditions: for valine diffusion across Caco2: 10 mM in DPBS. The procedure:
Undyed isotonic DPBS was used as receiver and donor buffer rather than HBSS due to interference with HBSS components and Valine in the HPLC. In brief 3 mM 10 mM Valine in DPBS alone or with 10 mM trisodium citrate was added to the donor chamber of each of 3 side by side diffusion cells with a confluent Caco 2 Monolayer between (TEER˜900 Ohm*cm2). […] Data is summarized below in Table X and graphically illustrated in FIG. 17.
On the technique in general: Caco-2 cells form a polarised layer with tight junctions and transporters.

Data set [7] deals with Caco2 monolayer. Description: Iso-leucine permeability through Caco2 monolayer with/without TSC (Example IX). Format: in vitro ADME, human. The following applies: for iso-leucine diffusion across Caco2: 10 mM in DPBS. Here is the method: Undyed isotonic DPBS was used as receiver and donor buffer rather than HBSS due to interference with HBSS components and Valine in the HPLC. In brief 3 mM 10 mM Isoleucine or Valine in DPBS alone or with 10 mM trisodium citrate was added to the donor chamber of each of 3 side by side diffusion cells with a confluent Caco 2 Monolayer between (TEER˜900 Ohm*cm2). […] Below are the results of this study in table form, which are graphically illustrated in FIG. 16.

Like-named read-outs stand apart in the source and are kept apart here.

Turning to `N[C@@H](CCC(=O)N[C@@H](CS)C(=O)NCC(=O)O)C(=O)O` [Glutathione alone, Glutathione], the “Glutathione permeation in the presence of trisodium citrate” value in the data set with Caco2 monolayer [1] (Caco-2) is reported as “significantly increased”. Besides, the “glutathione diffusion across Caco2” value in the data set with Caco2 monolayer [1] (Caco-2, 15 min) was 0.177 μM/cm^2; in the data set with Caco2 monolayer [1] (Caco-2, 30 min), 0.467 μM/cm^2; in the data set on Caco2 monolayer [1] (Caco-2, 45 min), 0.731 μM/cm^2; in the data set with Caco2 monolayer [1] (Caco-2, 60 min) it was 0.977 μM/cm^2; in the data set with Caco2 monolayer [1] (Caco-2, 75 min) it was 1.227 μM/cm^2; in the data set with Caco2 monolayer [1] (Caco-2, 90 min), 1.456 μM/cm^2.
Consider `CC(C)C[C@H](N)C(=O)O` [Leucine], for which the “Leucine permeation across Caco-2 monolayer” value in the data set with Caco-2 monolayer (human, Caco-2, 15 min) came out at 0.036 mg/cm2; in the data set with Caco-2 monolayer (human, Caco-2, 30 min) it was 0.052 mg/cm2; with Caco-2 monolayer (human, Caco-2, 45 min), 0.078 mg/cm2; in the data set on Caco-2 monolayer (human, Caco-2, 60 min), 0.106 mg/cm2; in the data set on Caco-2 monolayer (human, Caco-2, 75 min), 0.128 mg/cm2; in the data set on Caco-2 monolayer (human, Caco-2, 90 min), 0.151 mg/cm2. Moreover, the “Baseline adj for Leucine w/o Na” value with Caco-2 monolayer (human, Caco-2, 90 min) amounted to 0.00 mg/cm2. Further, the “L-Leucine permeability in the presence of trisodium citrate” value in the data set on Caco2 monolayer [2] (Caco-2) was “enhanced”. Also, the “L-Leucine permeability in the presence of TSC” value with Caco2 monolayer [3] (with L-Citrulline) and in the data set with Caco2 monolayer [4] (in the presence of sarcosine) was “enhanced” in each case. Besides, the “effect on the permeability of glutathione” value in the data set on Caco2 monolayer [1] (Caco-2) is “no noticeable effect”. Besides, the “permeability of Leucine in the presence of trisodium citrate” value with Caco2 monolayer [1] (Caco-2) was “enhanced”.
`[Cl-].[Na+]` [sodium chloride]: in the data set on Caco2 monolayer [5], the “effect on leucine permeability” value is “did produce an effect” and the “effect on permeability of creatine monohydrate” value is given as “enhanced”.
On to `N=C(N)NCCC[C@H](N)C(=O)O` [L-Arginine alone, L-Arginine], for which the “arginine diffusion across Caco2” value with Caco 2 Monolayer (Caco-2, 15 min) is given as 0.988 μM/cm^2; in the data set with Caco 2 Monolayer (Caco-2, 30 min) it was 1.453 μM/cm^2; in the data set on Caco 2 Monolayer (Caco-2, 45 min) it was 2.033 μM/cm^2; in the data set with Caco 2 Monolayer (Caco-2, 60 min), 2.578 μM/cm^2; in the data set with Caco 2 Monolayer (Caco-2, 75 min), 3.005 μM/cm^2; with Caco 2 Monolayer (Caco-2, 90 min), 3.448 μM/cm^2. Moreover, the “arginine diffusion across Caco2” value with Caco2 monolayer [2] (Caco-2, 15 min) came out at 1.007 μM/cm^2; in the data set on Caco2 monolayer [2] (Caco-2, 30 min), 1.511 μM/cm^2; in the data set with Caco2 monolayer [2] (Caco-2, 45 min), 1.999 μM/cm^2; in the data set with Caco2 monolayer [2] (Caco-2, 60 min) it was 2.432 μM/cm^2; in the data set on Caco2 monolayer [2] (Caco-2, 75 min) it was 2.982 μM/cm^2; in the data set on Caco2 monolayer [2] (Caco-2, 90 min), 3.237 μM/cm^2. For the same molecule, in the data set with Caco2 monolayer [2] (Caco-2), the “L-Arginine permeability in the presence of trisodium citrate” value is recorded as “enhanced”.
Consider `NC(=O)NCCC[C@H](N)C(=O)O` [L-Citrulline alone, L-Citrulline], for which the “L-Citrulline change in permeability in the presence of TSC” value in the data set with Caco 2 Monolayer (10 mM TSC) is recorded as “did not show any significant change”. Further, the “citrulline diffusion across Caco2” value in the data set on Caco 2 Monolayer (15 min) was found to be 2.281 μM/cm^2; with Caco 2 Monolayer (30 min), 1.428 μM/cm^2; with Caco 2 Monolayer (45 min) it was 1.415 μM/cm^2; in the data set on Caco 2 Monolayer (60 min) it was 2.191 μM/cm^2; in the data set with Caco 2 Monolayer (75 min), 2.457 μM/cm^2; with Caco 2 Monolayer (90 min) it was 2.893 μM/cm^2. Besides, the “citrulline diffusion across Caco2” value with Caco2 monolayer [3] (15 min) amounted to 0.846 μM/cm^2; in the data set on Caco2 monolayer [3] (30 min) it was 1.174 μM/cm^2; in the data set on Caco2 monolayer [3] (45 min) it was 1.906 μM/cm^2; in the data set with Caco2 monolayer [3] (60 min), 2.381 μM/cm^2; in the data set with Caco2 monolayer [3] (75 min) it was 2.699 μM/cm^2; with Caco2 monolayer [3] (90 min), 3.300 μM/cm^2. Also, the “effect on L-Citrulline permeability by TSC or L-Leucine” value with Caco2 monolayer [3] is recorded as “no significant effect”.
With `O=C1O[C@H]([C@@H](O)CO)C([O-])=C1O.[Na+]` [sodium ascorbate], the “permeation of leucine in the presence of the sodium source” value with Caco-2 monolayer (compared to leucine alone / sodium ascorbate) is “slight increase”.
Regarding `CC(C)[C@H](N)C(=O)O` [Valine alone, Valine], the “valine diffusion across Caco2” value with Caco2 monolayer [6] (15 min) is listed as 1.388 μM/cm^2; in the data set on Caco2 monolayer [6] (30 min), 1.431 μM/cm^2; in the data set with Caco2 monolayer [6] (45 min) it was 1.537 μM/cm^2; with Caco2 monolayer [6] (60 min), 1.682 μM/cm^2; in the data set on Caco2 monolayer [6] (75 min), 1.841 μM/cm^2; in the data set with Caco2 monolayer [6] (90 min), 2.081 μM/cm^2. For the same molecule, the “permeability shift in the presence of trisodium citrate” value in the data set on Caco2 monolayer [6] (compared to iso-leucine and leucine) is “significantly greater permeability shift and overall higher permeability”.
`CNCC(=O)O` [Sarcosine alone, Sarcosine]: in the data set with Caco2 monolayer [4], the “Sarcosine permeability in the presence of TSC” value is reported as “enhanced”. For the same molecule, the “sarcosine diffusion across Caco2” value is recorded as 0.496 μM/cm^2 in the data set with Caco2 monolayer [4] (15 min); 0.405 μM/cm^2 in the data set on Caco2 monolayer [4] (30 min); 0.974 μM/cm^2 with Caco2 monolayer [4] (45 min); 1.423 μM/cm^2 with Caco2 monolayer [4] (60 min); 2.102 μM/cm^2 in the data set with Caco2 monolayer [4] (75 min); 1.801 μM/cm^2 with Caco2 monolayer [4] (90 min).
Turning to `CC[C@H](C)[C@H](N)C(=O)O` [Iso-leucine alone, iso-leucine], the “permeability shift as a result of the addition of trisodium citrate” value with Caco2 monolayer [7] was “substantially similar permeability shift and overall permeability increase to that exhibited by leucine”. For the same molecule, the “iso-leucine diffusion across Caco2” value in the data set with Caco2 monolayer [7] (15 min) is on record as 0.271 μM/cm^2; in the data set with Caco2 monolayer [7] (30 min), 0.614 μM/cm^2; in the data set on Caco2 monolayer [7] (45 min) it was 0.978 μM/cm^2; in the data set on Caco2 monolayer [7] (60 min), 1.333 μM/cm^2; with Caco2 monolayer [7] (75 min) it was 1.748 μM/cm^2; in the data set with Caco2 monolayer [7] (90 min), 2.078 μM/cm^2.
